# From patent publication US20140288185A1, “NICOTINIC RECEPTOR NON-COMPETITIVE MODULATORS” (Targacept, Inc., priority 2011, published 2014)
# Read-outs that look alike come from different tables or passages of the source.
# Assays:
# Nicotinic, human α4β2 = Nicotinic, human α4β2 (Homo sapiens, UniProt P17787+P43681); assay: Competition binding, human α4β2 nicotinic receptor ([3H]nicotine)
# Procedure: (§1) SH-EP1-human α4β2 (Eaton et al., 2003), cell lines were obtained from Dr. Ron Lukas (Barrow Neurological Institute). Cells were maintained in proliferative growth phase in Dulbecco's modified Eagle's medium (Invitrogen, Carlsbad, Calif.) with 10% horse serum (Invitrogen), 5% fetal bovine serum (HyClone, Logan Utah), 1 mM sodium pyruvate, 4 mM L-glutamine. For maintenance of stable transfectants, the α4β2 cell media was supplemented with 0.25 mg/mL zeocin and 0.13 mg/mL hygromycin B.
# (§2) Cells were harvested in ice-cold PBS, pH 7.4, then homogenized with a Polytron (Kinematica GmbH, Switzerland). Homogenates were centrifuged at 40,000 g for 20 minutes (4° C.). The pellet was re-suspended in PBS and protein concentration determined using the Pierce BCA Protein Assay kit (Pierce Biotechnology, Rockford, Ill.).
# (§3) Binding to nicotinic receptors was assayed on membranes using standard methods adapted from published procedures (Lippiello and Fernandes 1986; Davies et al., 1999). In brief, membranes were reconstituted from frozen stocks and incubated for 2 h on ice in 150 μl assay buffer (50 mM Tris, 154 mM NaCl, pH 7.4) in the presence of competitor compound (0.001 nM to 100 μM) and radioligand. [^3H]-nicotine (L-(−)-[N-methyl-^3H]-nicotine, 69.5 Ci/mmol, Perkin-Elmer Life Sciences, Waltham, Mass.) was used for human α4β2 binding studies. [^3H]-epibatidine (52 Ci/mmol, Perkin-Elmer Life Sciences) was used for binding studies at the other nicotinic receptor subtypes. Incubation was terminated by rapid filtration on a multimanifold tissue harvester (Brandel, Gaithersburg, Md.) using GF/B filters presoaked in 0.33% polyethyleneimine (w/v) to reduce non-specific binding. Filters were washed 3 times with ice-cold assay buffer and the retained radioactivity was determined by liquid scintillation counting.
# (§4) Binding data were expressed as percent total control binding. Replicates for each point were averaged and plotted against the log of drug concentration. The IC50 (concentration of the compound that produces 50% inhibition of binding) was determined by least squares non-linear regression using GraphPad Prism software (GraphPAD, San Diego, Calif.). Ki was calculated using the Cheng-Prusoff equation (Cheng and Prusoff, 1973).
# Nicotinic, human α3β4 = target: T1, Nicotinic, human α3β4 (Homo sapiens, UniProt P30926+P32297); assay: Competition binding, human α3β4 nicotinic receptor (CHO human α3β4 membranes)
# T1 construct: host or cells: CHO
# Procedure: (§5) CHO-human α3β4 cells (obtained from ChanTest, Cleveland, Ohio, catalog #CT6021) were maintained in proliferative growth phase in Ham's F12 (VWR) with 10% fetal bovine serum (Invitrogen), 0.25 mg/mL geneticin; 0.4 mg/ml zeocin. The amino acid sequences encoded by the transfected cDNA constructs used to generate the CHO-human α3β4 cells are identical to the translated sequences for GenBank accession numbers NM_000743.2 and NM_000750.3, respectively.
# as §2, §3, §4
# Nicotinic, human α3β4α5 = target: T2, Nicotinic, human α3β4α5 (Homo sapiens, UniProt P30532+P30926+P32297); assay: Competition binding, human ganglion nicotinic receptor (SH-SY5Y membranes)
# T2 construct: endogenous in cells; host or cells: SH-SY5Y human neuroblastoma cells
# Procedure: as §2, §3, §4
# human α4β2 (HS) = human α4β2 (HS) (Homo sapiens, UniProt P17787+P43681); assay: Calcium flux inhibition, SH-EP1-human α4β2 treated at 29° C. (HS); format: cell-based
# Procedure: as §1
# (§6) Forty-eight hours prior to each experiment, cells were plated in 96 well black-walled, clear bottom plates (Corning, Corning, N.Y.) at 60-100,000 cells/well. On the day of the experiment, growth medium was gently removed, 200 μL 1×FLIPR Calcium 4 Assay reagent (Molecular Devices, Sunnyvale, Calif.) in assay buffer (20 mM HEPES, 7 mM TRIS base, 4 mM CaCl2, 5 mM D-glucose, 0.8 mM MgSO4, 5 mM KCl, 0.8 mM MgCl2, 120 mM N-methyl D-glucamine, 20 mM NaCl, pH 7.4 for SH-EP1-human α4β2 cells or 10 mM HEPES, 2.5 mM CaCl2, 5.6 mM D-glucose, 0.8 mM MgSO4, 5.3 mM KCl, 138 mM NaCl, pH 7.4 with TRIS-base for all other cell lines) was added to each well and plates were incubated at 37° C. for 1 hour (29° C. for the 29° C.-treated SH-EP1-human α4β2 cells). For inhibition studies, competitor compound (10 pM-10 μM) was added at the time of dye addition. The plates were removed from the incubator and allowed to equilibrate to room temperature. Plates were transferred to a FLIPR Tetra fluorometric imaging plate reader (Molecular Devices) for addition of compound and monitoring of fluorescence (excitation 485 nm, emission 525 nm). The amount of calcium flux was compared to both a positive (nicotine) and negative control (buffer alone). The positive control was defined as 100% response and the results of the test compounds were expressed as a percentage of the positive control. For inhibition studies, the agonist nicotine was used at concentrations of 1 μM for SH-EP1-human α4β2 treated at 29° C. (HS), 10 μM for SH-EP1-human α4β2 maintained at 37° C. (LS), and 20 μM for SH-SY5Y cells or CHO_human α3β4.
# human α4β2 (LS) = human α4β2 (LS) (Homo sapiens, UniProt P17787+P43681); assay: Calcium flux inhibition, SH-EP1-human α4β2 maintained at 37° C. (LS); format: cell-based; settings: for Emax: read-out: Human α4β2 Ca Flux Imax [37C/HS]
# Procedure: as §1
# as §6, with “For inhibition studies, the agonist nicotine was used at concentrations of 1 μM for SH-EP1-human α4β2 treated at 29° C. (HS), 10 μM for SH-EP1-human α4β2 maintained at 37° C.” left out
# human α3β4 = target: T3, human α3β4 (Homo sapiens, UniProt P30926+P32297); assay: Calcium flux inhibition, CHO-human α3β4 cells; format: cell-based
# T3 construct: host or cells: CHO
# Procedure: as §5, §6
# [1] = target: T4, Human Ganglion (SH-SY5Y cells) (Homo sapiens, UniProt P30532+P30926+P32297); assay: Calcium flux inhibition, human ganglion (SH-SY5Y cells); format: cell-based
# T4 construct: endogenous in cells; host or cells: SH-SY5Y human neuroblastoma cells
# Procedure: as §6
# [2] = 29° C.-treated cells (HS), nicotine 1 μM
# [3] = SH-SY5Y cells, nicotine 20 μM, read-out: Human Ganglion Ca Flux IC50
# [4] = SH-EP1-Human α4β2 cell membranes, [3H]nicotine 2 nM, read-out: Human α4β2 Ki
# [5] = cells maintained at 37° C. (LS), nicotine 10 μM, read-out: Human α4β2 Ca Flux IC50 [37C/LS]
# [6] = cells maintained at 37° C., nicotine 10 μM
# [7] = nicotine 20 μM, read-out: Human CHO α3β4 Ca Flux IC50
# [8] = CHO Human α3β4 membranes, [3H]epibatidine 1 nM, read-out: Human CHO α3β4 Ki
# [9] = 29° C.-treated cells (HS), nicotine 1 μM, read-out: Human α4β2 Ca Flux IC50 [29C/HS]
Compound,"Ki (Nicotinic, human α4β2) [µM]","Ki (Nicotinic, human α3β4) [µM]","Ki (Nicotinic, human α3β4α5) [µM]",IC50 (human α4β2 (HS)) [µM],Human α4β2 Ca Flux Imax [29C/HS] (human α4β2 (HS); [2]) [% inh],IC50 (human α4β2 (LS)) [µM],Emax (human α4β2 (LS)) [%],IC50 (human α3β4) [µM],Human CHO α3β4 Ca Flux Imax (human α3β4; nicotine 20 μM) [% inh],"Human Ganglion Ca Flux Imax ([1]; SH-SY5Y cells, nicotine 20 μM) [% inh]","IC50 [1, 3] [µM]","Ki (Nicotinic, human α4β2; [4]) [µM]",IC50 (human α4β2 (LS); [5]) [µM],Emax (human α4β2 (LS); [6]) [%],IC50 (human α3β4; [7]) [µM],"Ki (Nicotinic, human α3β4; [8]) [µM]",IC50 (human α4β2 (HS); [9]) [µM],IC50 [1] [µM],"Ki (Nicotinic, human α3β4α5; SH-SY5Y cell membranes (α3β4α5), [3H]epibatidine 1 nM, read-out: Human Ganglion Ki) [µM]"
CCCC12CCCC1(NC)C1CCC2C1 (stereo not drawn),29,73,52,0.21,100,0.17,96,0.13,96,98,0.03,,,,,,,,
C[N+](C)(C)[C@@]12CCC[C@@H]1[C@H]1CC[C@@H]2C1,,,,,,,,,94,,,6.9,0.26,98,0.94,,,,
CN(C)[C@]12CCC[C@H]1[C@@H]1CC[C@H]2C1,,,,,99,,,,97,,,47,0.41,98,0.23,16,0.41,,
CN[C@@]12CCC[C@@H]1[C@H]1CC[C@@H]2C1,51,80,70,0.38,97,0.38,96,0.66,97,95,0.49,,,,,,,,
CC[C@]12CCC[C@@]1(N(C)C)[C@@H]1CC[C@H]2C1,,,,,,,99,,96,,,64,0.37,,0.2,70,,,
CN(C)[C@@]12CCC[C@@H]1[C@H]1CC[C@@H]2C1,,,,,96,,,,96,,,20,0.5,98,0.19,13,0.51,,
C[N+](C)(C)[C@]12CCC[C@H]1[C@@H]1CC[C@H]2C1,,,,,,,,,,97,1.8,8.6,0.38,100,,13,,,
[2H]C([2H])NC12CCCC1(C([2H])([2H])[2H])C1CCC2C1 (stereo not drawn),,,,,,,,,,99,0.083,26,0.076,95,,,,,
CCCCC12CCCC1(NC)C1CCC2C1 (stereo not drawn),,,,,99,,96,,96,93,,73,0.14,,0.3,74,0.46,0.024,
CN[C@]12CCC[C@H]1[C@@H]1CC[C@H]2C1,33,,,0.55,96,0.34,96,0.49,97,95,0.38,,,,,,,,
CNC12CCCC1(CO)C1CCC2C1 (stereo not drawn),,,,,99,,,,,91,0.2,31,0.38,90,,,0.37,,89
CCC12CCCC1(NC)C1CCC2C1 (stereo not drawn),34,75,,0.43,100,0.17,97,0.22,97,98,0.02,,,,,,,,
CC[C@@]12CCC[C@]1(N(C)C)[C@H]1CC[C@@H]2C1,,,,,,,98,,95,,,33,0.71,,0.24,91,,,
CC[C@]12CCC[C@@]1(NC)[C@@H]1CC[C@H]2C1,32,53,,0.51,100,6.9,94,0.12,97,,,,,,,,,,
